The test system of test [1] is CD8+ mediated T lymphocyte response. Kind of test: Enhancement of a CD8+ T lymphocyte response after prior peptide immunisation (IFN-γ by lymph node cells). Format: in vivo. As to conditions: mice previously immunised s.c. with 25 μg TRP2180-188 peptide in CFA; 1 mg lipopeptide on skin for 3 days; day 30; FIG. 4. Here is the method:
(§1) TRP2180-188 lipopeptide and OVA323-339-lipopeptide were diluted at 10 mg/ml in olive oil. Mice were treated during by applying 1 mg lipopeptide or olive oil directly on shaved abdominal skin.
(§2) Sandwich ELISA was used to measure IFN-γ. In brief, ELISA plates (Polylabo, France) were coated with the appropriate coating mAbs (monoclonal antibodies) in carbonate buffer and incubated at 4° C. overnight. Plates were blocked for 30 mn at room temperature with 150 μl of 20% FCS/PBS to each well. 50 μl supernatants from in vitro stimulated cells were then added to the plates and incubated overnight at 4° C. After a washing step, 50 μl/well of the biotinylated second-step Ab was added. Plates were incubated for 1 h at room temperature and washed. The enzyme conjugate (streptavidin-peroxidase) was then added to each well. Plates were incubated at room temperature for 1 h, washed and 100 μl/well of substrate was added, (1 mg/ml ABTS). Plates were read on an ELISA reader at a wavelength of 405 nm after color development (Labsystems iEMS reader, Helsinki, Finland). […]
The inventors next wanted to evaluate the capacity of the TRP2180-188 lipopeptide treatment to enhance a prior immunisation of mice with the TRP2180-188 peptide. […] At day 30, mice were sacrificed and the production of IFN-γ by skin draining lymph nodes cells was measured in vitro upon restimulation with the TRP2180-188 peptide.

Test [2] shares this test system. Kind of test: Priming of a CD8+ T lymphocyte response by epicutaneous lipopeptide application (IFN-γ by lymph node cells). Format: in vivo, C57BL/6 mice. As to conditions: 1 mg on shaved abdomen once a day during one week, read one week later, vs untreated or vehicle; FIG. 3. How it is done: as §1
as §2, with “Plates were incubated at room temperature for 1 h, washed and 100 μl/well of substrate was added, (1 mg/ml ABTS).” left out
The inventors first wanted to know whether the epicutaneous application of a MHC class I restricted peptide formulated as a lipopeptide could prime a T CD8^+ lymphocyte mediated immune response in mice. […] One week after the last lipopeptide application, mice were sacrificed and the production of IFN-γ by skin draining lymph nodes cells was measured in vitro upon restimulation with the TRP2180-188 peptide.

Test [3] concerns OVA-specific DO11-10 T cells. Nature of the test: In vivo activation of T lymphocytes by cutaneous lipopeptide application on the ear (FACS of draining lymph node). The arrangement: species or system BALB/c mice. As to conditions: daily 20 μl of 50 μM on the ear, vs olive oil; FIG. 1. How it is done: Lipopeptide activates T lymphocytes in vivo. BALB/c mice were injected intravenously with 20×10^6 DO11-10 TCR-anti OVA transgenic splenocytes. Mice where then treated during 4 days by applying daily 20 μl of 50 μM OVA323-339-lipopeptide or the vehicle directly on one ear. At day five, mice were sacrificed, the draining lymph node and the contra-lateral node cells were stained with the anti-idiotype KJ1-26 recognizing specifically DO11-10 T lymphocytes, anti-CD4 and anti-CD25 antibody. FACS analysis is shown for lymph node cells gated on CD4^+ T lymphocytes.
To analyze the potential curative effect of Tr1 cells in a different inflammatory model, the inventors set up skin inflammation experiments using the hapten oxazolone in three daily applications (FIG. 1). Because Tr1 cells need to be activated at the site of inflammation, they first tested the ability of cutaneous application of lipo-Ova peptide to stimulate T cells. BALB/c mice were injected with naive OVA-specific DO11-10 T cells and mice were treated during […] by applying daily 20 μl of 50 μM OVA323-339-lipopeptide or olive oil directly on the ear. […] In that model, three days after the induction of ear inflammation with oxazolone, the mice were treated with OVA-specific Th1, Th2 or Tr1 T-cell populations or a Tr1 cell clone (FIG. 2) and the lipo-OVA peptide was applied for 6 days.

In test [4] the test system is CD4+ mediated humoral response. Nature of the test: Enhancement of a CD4+ mediated humoral response (serum Ovalbumin-specific IgE). Format: in vivo, Balb/C mice. The following applies: mice immunised i.p. with 25 μg Ovalbumin in Alumn; 1 mg lipopeptide on skin for 3 days; day 20; FIG. 5. How it is done:
as §1, §2
The inventors also wanted to know wether a lipopeptide epicutaneous application could enhance an humoral response elicited by CD4^+ T lymphocytes in immunised mice. […] At day 20, mice were sacrificed and the concentration of Ovalbumin-specific IgE immunoglobulin was measured in the serum of mice.

Where no end group is shown, it is not given here.

With “TRP2180-188 lipopeptide (SVYDFFVWL; also: lipid moiety, structure and place not given here; UniProt P29812 180-188, looked up, fragment) [lipopeptide derived from the tyrosinase related protein-2, restricted to the H2-K^b molecule; purchased from Bachem]”, the “production of IFN-γ by skin draining lymph nodes cells upon restimulation with the TRP2180-188 peptide” value in test [1] is “enhancement of the IFNγ production”; in test [2] it was “high amounts of IFN-γ were produced”.

As to “OVA323-339-lipopeptide (KISQAVHAAHAEINEAG; also: lipid moiety, structure and place not given here; UniProt P01012 323-339, looked up, fragment) [peptide 323-339 from Ovalbumin, MHC Class II I-A^d restricted, formulated as lipopeptide; purchased from Bachem]”, the “activated (CD25+) OVA-specific (KJ1-26+) T cells in draining lymph nodes” value in test [3] is reported as “accumulation of activated (CD25^+) OVA-specific (KJ1-26^+) only in the ear draining-lymph node treated with the lipopeptide”. The “serum concentration of Ovalbumin-specific IgE” value in test [4] is listed as “increase in the serum concentration of Ovalbumin specific IgE”.

For the origin of these results see US20070275005A1, “Use of Lipopeptides for Activating T Lymphocytes Through the Skin” (TX-CELL, priority 2003, published 2007).
